Experimental data published in ChEMBL document CHEMBL1145498, “A systematic interaction map of validated kinase inhibitors with Ser/Thr kinases” (Proc Natl Acad Sci U S A, 2007).
Converted amounts (≈) assume the structure as drawn. The source made the active and inactive calls. The calls are words filed in the database; no cut-off is given here.

Tests used:
Phospholipase A2 = Phospholipase A2 (Homo sapiens, UniProt P04054); experiment: Inhibition of phospholipase A2
[1] = target: RAF proto-oncogene serine/threonine-protein kinase (Homo sapiens, UniProt P04049); experiment: Inhibition of Raf1
Mus musculus [2] = species on record: Mus musculus; experiment: Inhibition of LPS-stimulated TNFalpha release in mouse; assay type: functional
PBMC = experiment: Inhibition of LPS-stimulated TNFalpha release in human PBMC; assay type: functional, cell-based
[3] = target: Epidermal growth factor receptor (Homo sapiens, UniProt P00533); settings: 10000 nM
[4] = target: Tyrosine-protein kinase BTK (Homo sapiens, UniProt Q06187); experiment: Inhibition of Btk
Aurora kinase B = Aurora kinase B (Homo sapiens, UniProt Q96GD4); experiment: Inhibition of Aurora kinase B in MCF7 cells; assay type: cell-based
Aurora kinase A = Aurora kinase A (Homo sapiens, UniProt O14965); experiment: Inhibition of Aurora kinase A
[5] = target: Epidermal growth factor receptor (Homo sapiens, UniProt P00533, L861Q); experiment: Inhibition of EGFR L861Q mutant; assay type: protein assay
Epidermal growth factor receptor (Homo sapiens, UniProt P00533, L861Q), sequence (P00533 25-1210 L861Q limits assumed): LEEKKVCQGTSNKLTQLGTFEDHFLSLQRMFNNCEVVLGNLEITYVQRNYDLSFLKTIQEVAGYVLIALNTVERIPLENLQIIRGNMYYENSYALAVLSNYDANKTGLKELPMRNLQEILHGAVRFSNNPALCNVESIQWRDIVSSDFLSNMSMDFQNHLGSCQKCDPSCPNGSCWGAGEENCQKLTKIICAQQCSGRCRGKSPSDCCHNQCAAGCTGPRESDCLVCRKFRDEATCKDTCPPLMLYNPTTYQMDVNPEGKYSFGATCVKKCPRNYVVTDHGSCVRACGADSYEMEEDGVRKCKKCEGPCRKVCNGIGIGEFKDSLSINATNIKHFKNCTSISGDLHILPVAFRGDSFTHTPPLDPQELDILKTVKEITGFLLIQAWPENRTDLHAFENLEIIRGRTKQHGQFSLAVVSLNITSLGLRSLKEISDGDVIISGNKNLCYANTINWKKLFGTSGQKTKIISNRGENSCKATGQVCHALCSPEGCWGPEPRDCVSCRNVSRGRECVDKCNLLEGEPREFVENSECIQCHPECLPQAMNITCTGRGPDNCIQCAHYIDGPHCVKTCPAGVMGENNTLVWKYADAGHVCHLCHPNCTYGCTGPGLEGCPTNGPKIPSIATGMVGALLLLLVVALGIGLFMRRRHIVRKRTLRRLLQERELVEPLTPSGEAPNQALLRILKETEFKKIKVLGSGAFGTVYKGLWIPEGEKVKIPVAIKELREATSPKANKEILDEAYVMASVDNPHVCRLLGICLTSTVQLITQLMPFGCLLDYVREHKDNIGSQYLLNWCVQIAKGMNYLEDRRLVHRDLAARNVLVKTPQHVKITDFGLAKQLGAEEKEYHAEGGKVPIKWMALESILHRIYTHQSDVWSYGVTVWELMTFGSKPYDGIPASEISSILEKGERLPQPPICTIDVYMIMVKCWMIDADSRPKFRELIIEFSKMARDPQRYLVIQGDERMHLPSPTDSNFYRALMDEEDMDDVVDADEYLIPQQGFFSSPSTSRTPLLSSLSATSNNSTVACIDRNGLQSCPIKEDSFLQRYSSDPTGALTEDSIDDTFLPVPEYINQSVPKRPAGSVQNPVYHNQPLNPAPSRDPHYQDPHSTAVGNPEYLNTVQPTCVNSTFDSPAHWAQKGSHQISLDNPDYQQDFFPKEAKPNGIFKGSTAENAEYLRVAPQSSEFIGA

[6] = Inhibition of diacylglycerol kinase in intact platelets
[7] = Inhibition of Cdk4/cyclin D
[8] = Inhibition of VEGFR
[9] = Inhibition of PDGF receptor kinase
[10] = target: Proto-oncogene tyrosine-protein kinase Src (Homo sapiens, UniProt P12931); experiment: Inhibition of c-Src
[11] = target: Tyrosine-protein kinase Fyn (Homo sapiens, UniProt P06241); experiment: Inhibition of Fyn
[12] = target: Protein kinase C gamma type (Homo sapiens, UniProt P05129); experiment: Inhibition of PKCgamma
[13] = Inhibition of FLT3 ITD mutant
[14] = target: T1, Vascular endothelial growth factor receptor 2 (Homo sapiens, UniProt P35968); experiment: Inhibition of KDR
T1 sequence (P35968 whole entry): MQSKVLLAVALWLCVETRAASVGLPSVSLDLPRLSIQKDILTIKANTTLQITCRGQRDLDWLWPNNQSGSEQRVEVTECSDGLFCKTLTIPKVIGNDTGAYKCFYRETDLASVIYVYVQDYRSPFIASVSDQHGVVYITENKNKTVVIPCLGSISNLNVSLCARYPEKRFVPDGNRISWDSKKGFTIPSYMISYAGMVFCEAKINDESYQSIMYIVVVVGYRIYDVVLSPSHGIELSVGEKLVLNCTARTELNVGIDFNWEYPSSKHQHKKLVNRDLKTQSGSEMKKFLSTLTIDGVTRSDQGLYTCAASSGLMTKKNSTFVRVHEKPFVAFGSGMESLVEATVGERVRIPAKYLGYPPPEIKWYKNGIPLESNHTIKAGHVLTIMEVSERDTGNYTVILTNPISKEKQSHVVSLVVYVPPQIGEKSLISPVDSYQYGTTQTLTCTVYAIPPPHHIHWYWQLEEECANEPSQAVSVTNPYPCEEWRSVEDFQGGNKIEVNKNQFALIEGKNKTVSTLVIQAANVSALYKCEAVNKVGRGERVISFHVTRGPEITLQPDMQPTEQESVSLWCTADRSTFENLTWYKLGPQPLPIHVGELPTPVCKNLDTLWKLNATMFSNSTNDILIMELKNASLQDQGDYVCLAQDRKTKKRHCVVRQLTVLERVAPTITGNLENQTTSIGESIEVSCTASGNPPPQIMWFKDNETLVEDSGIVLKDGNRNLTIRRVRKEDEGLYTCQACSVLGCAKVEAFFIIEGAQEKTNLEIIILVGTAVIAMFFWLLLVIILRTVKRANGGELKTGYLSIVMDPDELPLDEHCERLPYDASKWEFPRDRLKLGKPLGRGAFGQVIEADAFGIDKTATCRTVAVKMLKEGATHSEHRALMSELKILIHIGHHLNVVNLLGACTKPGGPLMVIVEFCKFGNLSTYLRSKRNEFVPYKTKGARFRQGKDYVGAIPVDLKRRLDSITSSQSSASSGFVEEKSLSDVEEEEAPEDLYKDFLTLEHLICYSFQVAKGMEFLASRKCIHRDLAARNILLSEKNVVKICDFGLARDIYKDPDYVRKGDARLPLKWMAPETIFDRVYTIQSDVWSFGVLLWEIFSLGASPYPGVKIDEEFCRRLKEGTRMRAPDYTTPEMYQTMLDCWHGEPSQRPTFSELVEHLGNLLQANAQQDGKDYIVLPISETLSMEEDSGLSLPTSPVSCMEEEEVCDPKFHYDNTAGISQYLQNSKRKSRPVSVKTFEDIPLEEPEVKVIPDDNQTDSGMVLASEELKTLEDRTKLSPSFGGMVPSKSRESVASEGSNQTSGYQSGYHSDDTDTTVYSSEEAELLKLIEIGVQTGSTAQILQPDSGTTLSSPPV

[15] = target: Receptor tyrosine-protein kinase erbB-2 (Homo sapiens, UniProt P04626); experiment: Inhibition of HER2
[16] = target: Macrophage colony-stimulating factor 1 receptor (Homo sapiens, UniProt P07333)
[17] = target: Protein kinase C zeta type (Homo sapiens, UniProt Q05513); experiment: Inhibition of PKCzeta
[18] = target: Mitogen-activated protein kinase 11 (Homo sapiens, UniProt Q15759); experiment: Inhibition of SAPK2b/p38beta
[19] = target: Mitogen-activated protein kinase 1 (Homo sapiens, UniProt P28482); experiment: Binding affinity to ERK2
HeLa = experiment: Antiproliferative activity against human HeLa cells; assay type: functional, cell-based
MCF7 [20] = experiment: Growth inhibition of human MCF7 cells; assay type: functional, cell-based
MV4-11 = experiment: Antiproliferative activity against human MV4-11 cells; assay type: functional
[21] = target: T1, Vascular endothelial growth factor receptor 2
[22] = target: Platelet-derived growth factor receptor beta (Homo sapiens, UniProt P09619)
Platelet-derived growth factor receptor beta, sequence (P09619 whole entry): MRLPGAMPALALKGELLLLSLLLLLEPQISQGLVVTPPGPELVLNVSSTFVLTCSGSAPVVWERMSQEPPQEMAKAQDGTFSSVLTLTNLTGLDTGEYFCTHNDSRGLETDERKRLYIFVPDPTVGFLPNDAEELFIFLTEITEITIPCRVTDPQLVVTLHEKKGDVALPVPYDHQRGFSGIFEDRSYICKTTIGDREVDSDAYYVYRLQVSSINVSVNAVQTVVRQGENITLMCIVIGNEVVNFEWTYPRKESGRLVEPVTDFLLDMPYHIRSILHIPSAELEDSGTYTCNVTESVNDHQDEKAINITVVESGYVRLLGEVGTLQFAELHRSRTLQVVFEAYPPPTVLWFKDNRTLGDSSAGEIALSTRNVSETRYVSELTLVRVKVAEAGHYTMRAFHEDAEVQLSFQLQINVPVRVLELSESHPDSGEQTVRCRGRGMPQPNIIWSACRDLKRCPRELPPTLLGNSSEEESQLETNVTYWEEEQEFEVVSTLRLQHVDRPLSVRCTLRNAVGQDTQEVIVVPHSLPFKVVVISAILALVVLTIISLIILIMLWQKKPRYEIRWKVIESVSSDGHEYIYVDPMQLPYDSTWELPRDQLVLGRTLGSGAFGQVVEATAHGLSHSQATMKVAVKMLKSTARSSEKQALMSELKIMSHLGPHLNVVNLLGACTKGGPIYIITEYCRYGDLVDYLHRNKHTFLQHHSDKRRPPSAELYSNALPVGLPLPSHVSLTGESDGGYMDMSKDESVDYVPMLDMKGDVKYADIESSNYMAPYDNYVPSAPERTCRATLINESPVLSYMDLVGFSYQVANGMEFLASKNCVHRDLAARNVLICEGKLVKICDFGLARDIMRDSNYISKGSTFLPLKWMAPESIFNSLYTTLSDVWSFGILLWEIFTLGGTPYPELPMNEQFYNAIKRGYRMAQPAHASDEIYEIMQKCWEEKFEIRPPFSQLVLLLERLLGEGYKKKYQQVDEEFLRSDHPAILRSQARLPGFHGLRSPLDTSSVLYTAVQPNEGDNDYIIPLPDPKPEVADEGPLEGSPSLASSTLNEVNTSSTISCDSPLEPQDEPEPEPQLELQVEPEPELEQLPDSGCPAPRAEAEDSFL

[23] = Antitumor activity in human Col1 cells; assay type: functional, cell-based
cells [24] = settings: Homo sapiens, Granta-519, 72 h
cells [25] = settings: Homo sapiens, NCEB1, 72 h
[26] = Inhibition of Cdk/cyclin D1
Protein kinase C (PKC) = experiment: Inhibition of rat brain PKC
[27] = target: Calcium dependent protein kinase (Triticum aestivum, UniProt A0T123); experiment: Inhibition of wheat embryo CDPK
KM12 = experiment: Inhibition of human KM12 cells; assay type: functional
[28] = Agonist activity at yeast aryl hydrocarbon receptor; assay type: functional, Saccharomyces cerevisiae
[29] = Inhibition of p60v-src kinase
[30] = target: Myosin light chain kinase, smooth muscle (Homo sapiens, UniProt Q15746); experiment: Binding affinity at MLCK
[31] = Inhibition of TNFalpha release in human peripheral blood mononuclear cells; assay type: functional
[32] = not given; remark: listed apart in the source
[33] = target: Cyclin-dependent kinase 7/ cyclin H (Homo sapiens, UniProt P50613); experiment: Inhibition of Cdk7/H/MAT1; assay type: protein-complex assay
Cyclin-dependent kinase 7/ cyclin H, sequence (P51946 whole entry): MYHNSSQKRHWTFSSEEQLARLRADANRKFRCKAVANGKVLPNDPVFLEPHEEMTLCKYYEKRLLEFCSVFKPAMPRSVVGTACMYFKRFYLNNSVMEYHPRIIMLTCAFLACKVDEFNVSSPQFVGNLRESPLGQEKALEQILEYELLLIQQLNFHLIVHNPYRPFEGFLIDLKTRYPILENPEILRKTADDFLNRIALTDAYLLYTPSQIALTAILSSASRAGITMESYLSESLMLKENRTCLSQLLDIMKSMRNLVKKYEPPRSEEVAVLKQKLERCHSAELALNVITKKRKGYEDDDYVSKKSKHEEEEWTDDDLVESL
Cyclin-dependent kinase 7/ cyclin H, sequence (P50613 whole entry): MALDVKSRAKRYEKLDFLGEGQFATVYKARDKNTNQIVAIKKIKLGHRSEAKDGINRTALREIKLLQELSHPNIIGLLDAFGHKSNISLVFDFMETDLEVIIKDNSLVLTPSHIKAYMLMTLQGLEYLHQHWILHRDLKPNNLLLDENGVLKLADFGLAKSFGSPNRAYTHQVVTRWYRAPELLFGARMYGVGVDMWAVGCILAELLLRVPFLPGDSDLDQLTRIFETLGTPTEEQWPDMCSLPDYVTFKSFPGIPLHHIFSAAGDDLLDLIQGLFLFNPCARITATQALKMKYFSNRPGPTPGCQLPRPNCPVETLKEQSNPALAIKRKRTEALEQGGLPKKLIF

[34] = target: Dual specificity mitogen-activated protein kinase kinase 3 (Homo sapiens, UniProt P46734); experiment: Inhibition of MKK3
Mus musculus [35] = experiment: Effect on phorbol ester-induced ear edema in ip dosed mouse; assay type: functional
[36] = target: Dual specificity protein kinase CLK3 (Mus musculus, UniProt O35492); experiment: Inhibition of mouse Clk3
[37] = target: Dual specificity protein kinase CLK4 (Mus musculus, UniProt O35493); experiment: Inhibition of mouse Clk4
[38] = Inhibition of serum-induced proliferation in human NHLF cells; assay type: functional, cell-based
Jurkat = experiment: Inhibition of serum-induced proliferation in human Jurkat cells; assay type: functional, cell-based
[39] = target: Membrane-associated tyrosine- and threonine-specific cdc2-inhibitory kinase (Homo sapiens, UniProt Q99640); experiment: Inhibition of Myt1
MCF7 [40] = experiment: Cytotoxicity against human MCF7 cells; assay type: functional, cell-based
P19 = experiment: Induction of differentiation in mouse P19 cells at 1000 nM; assay type: functional
[41] = Induction of differentiation in mouse D3 cells at 400 nM; assay type: functional
[42] = Inhibition of IGF1
[43] = target: Serine-protein kinase ATM (Homo sapiens, UniProt Q13315); experiment: Inhibition of ATM
[44] = target: Serine/threonine-protein kinase ATR (Homo sapiens, UniProt Q13535); experiment: Inhibition of ATR
[45] = Plasma clearance in mouse at 5 mg/kg, iv; assay type: ADME, organism-based; design: dose 5 mg/kg, route intravenous
[46] = Bioavailability in mouse at 20 mg/kg, ip; assay type: ADME, organism-based; settings: in vivo
[47] = target: Bcl2-associated agonist of cell death (Homo sapiens) (UniProt Q92934); experiment: Reduction of BAD phosphorylation in human MV4-11 cells at 1 uM by Western blot; assay type: functional, cell-based
Homo sapiens = species on record: Homo sapiens; experiment: Reduction of growth in human acute leukemic blasts; assay type: functional
[48] = Inhibition of GTPase activity of transducer
[49] = target: Casein kinase I isoform epsilon (Homo sapiens, UniProt P49674); experiment: Inhibition of CK1epsilon
Casein kinase I isoform epsilon, sequence (P49674 whole entry, canonical isoform): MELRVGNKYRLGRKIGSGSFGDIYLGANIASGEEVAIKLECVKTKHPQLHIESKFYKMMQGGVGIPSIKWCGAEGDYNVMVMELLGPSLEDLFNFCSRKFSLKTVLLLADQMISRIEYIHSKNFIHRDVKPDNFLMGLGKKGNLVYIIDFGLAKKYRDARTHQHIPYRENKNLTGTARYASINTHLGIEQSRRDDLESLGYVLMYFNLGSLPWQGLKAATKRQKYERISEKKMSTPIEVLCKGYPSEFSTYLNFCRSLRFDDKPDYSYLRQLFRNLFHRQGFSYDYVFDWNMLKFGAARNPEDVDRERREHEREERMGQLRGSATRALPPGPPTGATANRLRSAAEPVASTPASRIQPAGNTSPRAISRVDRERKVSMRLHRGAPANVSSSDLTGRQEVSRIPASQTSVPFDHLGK

[50] = target: Casein kinase I isoform alpha (Homo sapiens, UniProt P48729); experiment: Inhibition of CK1a1
Casein kinase I isoform alpha, sequence (P48729 whole entry, canonical isoform): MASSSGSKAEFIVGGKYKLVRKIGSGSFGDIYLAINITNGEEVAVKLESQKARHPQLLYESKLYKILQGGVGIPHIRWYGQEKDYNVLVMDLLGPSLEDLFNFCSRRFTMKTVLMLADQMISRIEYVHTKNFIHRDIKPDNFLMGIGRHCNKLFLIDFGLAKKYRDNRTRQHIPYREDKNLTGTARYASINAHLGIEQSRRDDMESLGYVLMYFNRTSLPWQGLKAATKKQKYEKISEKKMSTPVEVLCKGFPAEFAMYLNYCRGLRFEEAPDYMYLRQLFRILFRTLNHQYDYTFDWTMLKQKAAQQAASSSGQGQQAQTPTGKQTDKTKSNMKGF

[51] = target: Casein kinase I isoform delta (Homo sapiens, UniProt P48730)
[52] = Inhibition of adhesion kinase in human T cells; assay type: cell-based; settings: t-cell
[53] = Inhibition of Plx1
[54] = Inhibition of Cdk9/cyclin T1

O=c1c(O)c(-c2ccc(O)c(O)c2)oc2cc(O)cc(O)c12 [QUERCETIN]
IC50 (Phospholipase A2): 2 µM

O=C1C(Cl)=C(N2C(=O)CCC2=O)C(=O)c2ccccc21
IC50 [1]: 34.5 µM

CSc1nc(-c2ccc(F)cc2)c(-c2ccnc(NC(C)c3ccccc3)c2)[nH]1 (racemic)
ED50 (Mus musculus [2]): 1.33 mg/kg | IC50 (PBMC): 0.16 µM

O=C1Nc2ccccc2/C1=C/c1cnc[nH]1
inhibition [3]: 54%

NCCNc1ncc(C(N)=O)c(Nc2cccc(C(F)(F)F)c2)n1
IC50 [4]: 15.5 µM

COc1cc2ncnc(Nc3ccc(NC(=O)c4ccccc4)cc3)c2cc1OC [ANILINOQUINAZOLINE1]
IC50 (Aurora kinase B): 1.25 µM | IC50 (Aurora kinase A): 0.31 µM

O=C(Nc1cccc(Nc2cc(Nc3cccc(C(F)(F)F)c3)ncn2)c1)C1CC1
IC50 [5]: 0.004 µM

O=c1c2ccccc2[nH]c(=S)n1CCN1CCC(=C(c2ccc(F)cc2)c2ccc(F)cc2)CC1 [DIACYLGLYCEROL KINASE INHIBITOR II]
IC50 [6]: 0.12 µM

Cn1cnc2c(NCc3ccccc3)nc(NCCO)nc21 [OLOMOUCINE]
IC50 [7]: > 1000 µM

COc1cc2c(cc1OC)-c1n[nH]c(Nc3cccc(F)c3)c1C2
IC50 [8]: 3.1 µM

CN(C)S(=O)(=O)c1ccc2c(c1)/C(=C/c1cc3c([nH]1)CCCC3)C(=O)N2
IC50 [9]: > 10 µM | IC50 [10]: 688 µM | IC50 [11]: 0.17 µM

O=C1NC(=O)C(c2cn(CCCn3ccnc3)c3ccccc23)=C1Nc1ccccc1
IC50 [12]: > 1 µM

c1ccc(-c2n[nH]c3c2oc2ccccc23)cc1
IC50 [13]: 0.3 µM | IC50 [14]: ≥ 10 µM | IC50 [15]: ≥ 10 µM | IC50 [16]: 0.3 µM

CN(C)CCCn1cc(C2=C(c3c[nH]c4ccccc34)C(=O)NC2=O)c2ccccc21 [GF-109203]
IC50 [17]: 5.8 µM

Cc1ccc(NC(=O)c2cccc(N(C)C)c2)cc1NC(=O)c1ccc(O)cc1
IC50 [18]: 2 µM

CCOc1ccc(/C=C2/SC(=O)N(CCN)C2=O)cc1 [HIAZOLIDINEDIONE1]
Kd [19]: 5 µM | IC50 (HeLa): ≤ 25 µM

COc1ccc(Cl)cc1NC(=O)Nc1cc(C)nc2ccccc12
IC50 (MCF7 [20]): 15 µM | Activity (MV4-11): 15 µM

N#CCCc1ccc2c(c1)-c1[nH]c3ccc([N+](=O)[O-])cc3c1CC(=O)N2 [ALSTERPAULLONE 2]
IC50 [21]: 1 µM | IC50 [22]: 0.316 µM

Cc1ccc(NC2=CC(=O)c3sc(C)nc3C2=O)cc1
IC50 [23]: 1080 µg/mL (≈ 3.8 mM)

CC[C@H](CO)Nc1nc(NCc2ccccc2)c2ncn(C(C)C)c2n1 [SELICICLIB]
IC50 (cells [24]): 25 µM | IC50 (cells [25]): 50 µM

O=C1c2ccccc2-[n+]2ccc3c([nH]c4ccccc43)c21 [FASCAPLYSIN CHLORIDE]
IC50 [26]: 0.35 µM

Cl.Cn1cc(C2=C(c3ccc4cc5n(c4c3)CCC(CN)C5)C(=O)NC2=O)c2ccccc21 (stereo unspecified)
IC50 (Protein kinase C (PKC)): 0.015 µM

Oc1cc(O)cc(/C=C/c2ccc(O)c(O)c2)c1 [PICEATANNOL]
IC50 [27]: 19 µM

CC(C)[C@H](CO)Nc1nc(Nc2cc(N)cc(Cl)c2)c2ncn(C(C)C)c2n1 [AMINOPURVALANOL]
GI50 (KM12): 0.03 µM

CC(=O)O/N=C1/C(=C2/C(=O)Nc3cc(Br)ccc32)Nc2ccccc21 [6-BROMOINDIRUBIN-3'-ACETOXIME]
EC50 [28]: ≥ 0.1 µM

C[C@@H]1C[C@H]2O[C@@H]2/C=C\C=C\C(=O)Cc2c(Cl)c(O)cc(O)c2C(=O)O1 [RADICICOL]
IC50 [29]: 0.00027 µM

N=C(N)NCCNS(=O)(=O)c1cccc2cnccc12
Ki [30]: 150 µM

C[S+]([O-])c1ccc(CSc2nc(-c3ccc(F)cc3)c(-c3ccncc3)[nH]2)cc1 (stereo unspecified)
IC50 [31]: 3.65 µM

CCOC(=O)c1cnc2oc3ccc(O)cc3c2c1-c1ccccc1
Activity: Active | Activity [32]: Active

CC(C)c1nn(-c2c(Cl)cccc2Cl)c2nc(Cc3ccc(OCCO)cc3)[nH]c(=O)c12
IC50 [33]: 0.071 µM

C=CNC#N
IC50 [34]: > 1 µM | ED50 (Mus musculus [35]): 5 mg/kg

CCN1/C(=C/C(C)=O)Sc2ccc(OC)cc21
IC50 [36]: > 10 µM | IC50 [37]: 0.015 µM

CN1CCc2[nH]c(=S)c(C#N)c(-c3cccs3)c2C1
IC50 [38]: < 8 µM | IC50 (Jurkat): < 8 µM | IC50 [39]: 1.2 µM

NC1=N/C(=C2/CCNC(=O)c3[nH]ccc32)C(=O)N1 [DEBROMOHYMENIALDISINE]
IC50 (MCF7 [40]): 25 µM

Nc1cccc(-c2cc3c(Oc4cccc(O)c4)ncnc3[nH]2)c1
Activity (P19): 30% | Activity [41]: 50%

CCOC(=O)c1c(C)[nH]c(/C=C2\C(=O)Nc3ccccc32)c1C
IC50 [42]: > 100 µM

O=c1cc(N2CCOCC2)oc2c1ccc1ccccc12
IC50 [43]: > 100 µM | IC50 [44]: > 100 µM | clearance [45]: 1.8 mL/min | bioavailability [46]: 20%

CN(C)C[C@@H]1CCn2cc(c3ccccc32)C2=C(C(=O)NC2=O)c2cn(c3ccccc23)CCO1 [RUBOXISTAURIN]
Activity [47]: Active | Activity (Homo sapiens): Active

N#CC(C#N)=Cc1ccc(O)c(O)c1 [TYRPHOSTIN 23]
IC50 [48]: 10 µM

COc1cc(OC)c(/C=C2\C(=O)Nc3ccccc32)c(OC)c1
IC50 [49]: 0.6 µM | IC50 [50]: 11 µM | IC50 [51]: 0.7 µM

CC(C)(C)n1nc(-c2ccc(Cl)cc2)c2c(N)ncnc21
IC50 [52]: 0.6 µM

C/C(O)=C(\C#N)C(=O)Nc1cc(Br)ccc1Br
IC50 [53]: 10 µM

Cc1nc(N)sc1-c1ccnc(Nc2cccc([N+](=O)[O-])c2)n1
Ki [54]: 0.004 µM
